Assay results from ChEMBL document CHEMBL1147867, “Identification of antitumour activity of novel derivatives of 8-aryl-2,6,7,8-tetrahydroimidazo[2,1-c][1,2,4]triazine-3,4-dione and 8-aryl-4-imino-2,3,7,8-tetrahydroimidazo[2,1-c][1,2,4]triazin-3(6H)-one” (Bioorg Med Chem, 2007).
In brackets after ≈: the same amount, converted by molar mass.

Columns and labels:
[1] = Cytotoxicity against Vero cells at 10 ug/ml after 72 hrs; type: cell-based; conditions: chlorocebus sabaeus, read-out: Inhibition
[2] = system: T47D; assay: Cytotoxicity against human T47D cells at 50 ug/ml after 72 hrs; type: functional
[3] = system: T47D; assay: Cytotoxicity against human T47D cells at 10 ug/ml after 72 hrs; type: functional
[4] = system: Staphylococcus epidermidis; assay: Antibacterial activity against Staphylococcus epidermidis after 24 hrs by microdilution broth method; type: functional
[5] = system: Escherichia coli; assay: Antibacterial activity against Escherichia coli after 24 hrs by microdilution broth method; type: functional
[6] = system: Streptococcus pyogenes; assay: Antibacterial activity against Streptococcus pyogenes after 24 hrs by microdilution broth method; type: functional
[7] = Cytotoxicity against Vero cells at 50 ug/ml after 72 hrs; type: cell-based; conditions: chlorocebus sabaeus, read-out: Inhibition
[8] = Cytotoxicity against human LS180 cells at 10 ug/ml after 72 hrs; type: functional; conditions: LS180, 72 h
[9] = system: Staphylococcus aureus; assay: Antibacterial activity against Staphylococcus aureus after 24 hrs by microdilution broth method; type: functional
[10] = system: HeLa; assay: Cytotoxicity against human HeLa cells at 50 ug/ml after 72 hrs; type: functional
[11] = Cytotoxicity against human LS180 cells at 50 ug/ml after 72 hrs; type: functional; conditions: LS180, 72 h
[12] = system: HeLa; assay: Cytotoxicity against human HeLa cells at 10 ug/ml after 72 hrs; type: functional
[13] = system: RPMI-8226; assay: Cell viability in human RPMI 8226 ECACC 87012702 cancer cells at 50 uM after 24 hrs by MTT assay; type: functional
[14] = system: RPMI-8226; assay: Cell viability in human RPMI 8226 ECACC 87012702 cancer cells at 1 uM after 24 hrs by MTT assay; type: functional
[15] = Cell viability in HSF cells at 1 uM after 24 hrs by MTT assay; type: cell-based, Fibroblast; conditions: human, read-out: Activity
[16] = system: A549; assay: Anticancer activity against human A549 cells at 10 ug/ml after 72 hrs; type: functional; conditions: A549, 72 h
[17] = system: A549; assay: Anticancer activity against human A549 cells at 50 ug/ml after 72 hrs; type: functional; conditions: A549, 72 h
[18] = system: RPMI-8226; assay: Cell viability in human RPMI 8226 ECACC 87012702 cancer cells at 100 uM after 24 hrs by MTT assay; type: functional
[19] = Cell viability in HSF cells at 100 uM after 24 hrs by MTT assay; type: functional, Homo sapiens, Fibroblast
[20] = Cell viability in HSF cells at 50 uM after 24 hrs by MTT assay; type: cell-based, Fibroblast; conditions: human, read-out: Activity
[21] = Acute toxicity in mouse; type: organism-based; conditions: in vivo

| SMILES | cytotoxicity at 72 h, 10 ug/ml [1] [%] | inhibition at 50 µg/mL [2] [%] | inhibition at 10 µg/mL [3] [%] | MIC [4] [µM] | MIC [5] [µM] | cytotoxicity at 72 h, 50 ug/ml [7] [%] | inhibition at 10 µg/mL [8] [%] | MIC [9] [µM] | inhibition at 50 µg/mL [10] [%] | inhibition at 50 µg/mL [11] [%] | inhibition at 10 µg/mL [12] [%] | Activity [13] [%] | Activity [14] [%] | viability at 24 h, 1 µM [15] [%] | inhibition at 10 µg/mL [16] [%] | inhibition at 50 µg/mL [17] [%] | Activity [18] [%] | Activity [19] [%] | viability at 24 h, 50 µM [20] [%] | also measured |
| --- | --- | --- | --- | --- | --- | --- | --- | --- | --- | --- | --- | --- | --- | --- | --- | --- | --- | --- | --- | --- |
| Cc1cccc(N2CCN/C2=N\N)c1C | 16 | 25 | 21 | 18.8 (≈ 3.84 µg/mL) | 18.8 (≈ 3.84 µg/mL) | 14 | 6 | 37.6 (≈ 7.68 µg/mL) | 0 | 0 | 8 | – | – | – | – | – | – | – | – | MIC [6]: 75.2 µM (≈ 15.4 µg/mL) |
| Cc1ccccc1N1CCn2c1n[nH]c(=O)c2=O | 0 | 0 | 0 | – | – | 0 | 0 | – | 0 | 0 | 0 | 121 | 101 | 104 | 24 | 29 | 133 | 108 | 110 | – |
| CC1(C)S[C@@H]2[C@H](NC(=O)[C@H](N)c3ccccc3)C(=O)N2[C@H]1C(=O)O [AMPICILLIN] | – | – | – | 71.5 (≈ 25 µg/mL) | 35.8 (≈ 12.5 µg/mL) | – | – | 35.8 (≈ 12.5 µg/mL) | – | – | – | – | – | – | – | – | – | – | – | – |
| N/N=C1\NCCN1c1cccc(Cl)c1 | 0 | 0 | 5 | – | – | 10 | 8 | – | 0 | 0 | 0 | – | – | – | – | – | – | – | – | – |
| COc1ccccc1N1CCN/C1=N\N | – | – | – | 37.4 (≈ 7.71 µg/mL) | 29.9 (≈ 6.17 µg/mL) | – | – | 37.4 (≈ 7.71 µg/mL) | – | – | – | – | – | – | – | – | – | – | – | MIC [6]: 74.8 µM (≈ 15.4 µg/mL) |
| O=c1[nH]nc2n(c1=O)CCN2c1cccc(Cl)c1 | 11 | 0 | 0 | – | – | 24 | 0 | – | 38 | 0 | 27 | 68 | 89 | 95 | 0 | 0 | 62 | 91 | 91 | LD50 [21]: > 2000 mg/kg |
| O=C(N[C@H](CO)[C@H](O)c1ccc([N+](=O)[O-])cc1)C(Cl)Cl [CHLORAMPHENICOL] | – | – | – | 6 (≈ 1.94 µg/mL) | 12.1 (≈ 3.91 µg/mL) | – | – | 12.1 (≈ 3.91 µg/mL) | – | – | – | – | – | – | – | – | – | – | – | – |
| N/N=C1\NCCN1c1ccccc1 | 0 | 0 | 0 | 41.1 (≈ 7.24 µg/mL) | 41.1 (≈ 7.24 µg/mL) | 0 | 1 | 41.1 (≈ 7.24 µg/mL) | 3 | 0 | 6 | – | – | – | – | – | – | – | – | MIC [6]: 65.8 µM (≈ 11.6 µg/mL) |
| N=c1c(=O)[nH]nc2n1CCN2c1ccc(Cl)cc1 | 0 | 27 | 16 | – | – | 0 | 0 | – | 0 | 5 | 8 | 76 | 94 | 98 | 25 | 27 | 64 | 74 | 84 | – |
| N/N=C1\NCCN1c1ccccc1Cl | 0 | 27 | 22 | – | – | 0 | 7 | – | 0 | 0 | 2 | – | – | – | – | – | – | – | – | – |
| N/N=C1\NCCN1c1ccc(Cl)cc1 | – | – | – | 18.4 (≈ 3.88 µg/mL) | 36.9 (≈ 7.77 µg/mL) | – | – | 29.5 (≈ 6.21 µg/mL) | – | – | – | – | – | – | – | – | – | – | – | MIC [6]: 59.1 µM (≈ 12.5 µg/mL) |
| O=c1[nH]nc2n(c1=O)CCN2c1ccc(Cl)c(Cl)c1 | – | – | – | – | – | – | – | – | – | – | – | 35 | 98 | 109 | – | – | 25 | 90 | 90 | – |
| N=c1c(=O)[nH]nc2n1CCN2c1ccccc1Cl | 0 | 0 | 0 | – | – | 2 | 6 | – | 0 | 2 | 0 | 94 | 93 | 100 | 6 | 16 | 93 | 101 | 104 | – |
| N=c1c(=O)[nH]nc2n1CCN2c1cccc(Cl)c1 | 0 | 31 | 3 | – | – | 0 | 0 | – | 2 | 1 | 6 | – | – | – | 36 | 50 | – | – | – | – |
| COc1ccccc1N1CCn2c1n[nH]c(=O)c2=O | 26 | 9 | 1 | – | – | 17 | 30 | – | 8 | 29 | 5 | 90 | 90 | 103 | 0 | 39 | 85 | 94 | 101 | LD50 [21]: 1100 mg/kg |
| N=c1c(=O)[nH]nc2n1CCN2c1ccccc1 | 26 | 3 | 0 | – | – | 30 | 0 | – | 34 | 1 | 30 | 103 | 95 | 101 | 7 | 38 | 106 | 106 | 103 | – |
| O=c1[nH]nc2n(c1=O)CCN2c1ccccc1 | 7 | 0 | 0 | – | – | 30 | 0 | – | 0 | 12 | 0 | 96 | 96 | 93 | 0 | 17 | 86 | 94 | 95 | LD50 [21]: 1400 mg/kg |
| Cc1ccccc1N1CCN/C1=N\N | – | – | – | 31.4 (≈ 5.97 µg/mL) | 15.7 (≈ 2.99 µg/mL) | – | – | 39.3 (≈ 7.48 µg/mL) | – | – | – | – | – | – | – | – | – | – | – | MIC [6]: 78.6 µM (≈ 15 µg/mL) |
| Cc1ccc(N2CCN/C2=N\N)cc1 | 0 | 17 | 12 | – | – | 9 | 11 | – | 0 | 15 | 3 | – | – | – | – | – | – | – | – | – |
| Cc1ccc(N2CCn3c2n[nH]c(=O)c3=O)cc1 | 0 | 22 | 14 | – | – | 0 | 2 | – | 11 | 0 | 0 | 91 | 95 | 93 | 20 | 31 | 83 | 92 | 97 | LD50 [21]: 1800 mg/kg |
| COc1ccc(N2CCN/C2=N\N)cc1 | 0 | 23 | 17 | 18.7 (≈ 3.86 µg/mL) | 15 (≈ 3.09 µg/mL) | 0 | 4 | 29.9 (≈ 6.17 µg/mL) | 0 | 9 | 0 | – | – | – | – | – | – | – | – | MIC [6]: 59.8 µM (≈ 12.3 µg/mL) |
| Cc1cccc(N2CCn3c2n[nH]c(=O)c3=O)c1C | 18 | 22 | 21 | – | – | 18 | 0 | – | 0 | 0 | 0 | – | – | – | 0 | 0 | – | – | – | – |
| COc1ccc(N2CCn3c2n[nH]c(=O)c3=O)cc1 | 0 | 21 | 7 | – | – | 10 | 0 | – | 0 | 46 | 6 | 99 | 98 | 94 | 0 | 0 | 99 | 94 | 92 | LD50 [21]: 1500 mg/kg |
